In the supplement of paper PMC11208160:

Assay: recombinant UMI read abundance after kanamycin selection (control-corrected) (log10(CPM+1)); higher = more efficient recombination; extreme values may be limits of the assay; sequences stand for … in AGTGCAGAGAAAATCGGCCAGTTTTCTCTGCCTGCAGTCCGCATGCCGTGGGACCCCTTGGGTTCTAACCTGTTGCCTAGATTTATGCAGCGGACTGCCTTTCTCCCAAAGTGATAAACCGG…AGGTTGGTTTCACT; site = the 11-nt donor
Procedure, shortened: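 In Escherichia coli, a pool of donor and donor-binding-loop pairs, each with a 12-nt UMI, was tested for the IS621 bridge recombinase. Plating was on IPTG (0.07 mM) plus kanamycin, or without selection, in two replicates. Recombinant UMIs were amplified by PCR across the donor–target junction and sequenced, and counts were reported as log10(CPM+1) after averaging and control-derived scaling.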
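Further: IS621 bridge recombinase in Escherichia coli cells against a fixed T5 target plasmid.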

Row | Sequence | recombinant UMI read abundance (log10)
1 | GACCACCCATGGACCGGTTTTCCCGGTAATCCGTATTTGTT (site GTCCACCCTAA) | 0.0482
2 | GACCCATCATGGACCGGTTTTCCCGGTAATCCGTATTTGCC (site GACCCATCTGG) | 1.64
3 | GACCCGACATGGACCGGTTTTCCCGGTAATCCGTATTTGGT (site GACCCGACTAC) | 0.319
4 | GACCCTACATGGACCGGTTTTCCCGGTAATCCGTATTTGAA (site GACCCTACTTT) | 0.324
5 | GACCGACCATGGACCGGTTTTCCCGGTAATCCGTATTTGCG (site GACCGACCTCG) | 0.00858
6 | GACCGTCCATGGACCGGTTTTCCCGGTAATCCGTATTTGAC (site GACCGTCCTGT) | 0
7 | GACCTATCATGGACCGGTTTTCCCGGTAATCCGTATTTGGA (site GACCTATCTTC) | 0.981
8 | GACCTTCCATGGACCGGTTTTCCCGGTAATCCGTATTTGGT (site GACCTTCCTAC) | 0.0209
9 | GACGCCGCATGGACCGGTTTTCCCGGTAATCCGTATTTGGT (site GACGCCGCTAC) | 0.736
10 | GACGTAACATGGACCGGTTTTCCCGGTAATCCGTATTTGGC (site GACGTAACTGC) | 1.72
11 | GACTAGCCATGGACCGGTTTTCCCGGTAATCCGTATTTGAA (site GACTAGCCTTT) | 0.0158
12 | GACTCATCATGGACCGGTTTTCCCGGTAATCCGTATTTGCC (site GACTCATCTGG) | 2.65
13 | GACTTGGCATGGACCGGTTTTCCCGGTAATCCGTATTTGAA (site GACTTGGCTTT) | 0.93
14 | GAGAAGCCATGGACCGGTTTTCCCGGTAATCCGTATTTGGG (site GAGAAGCCTCC) | 0.0155
15 | GAGAAGCCATGGACCGGTTTTCCCGGTAATCCGTATTTGGG (site GCGAAGCCTCC) | 0.0122
16 | GAGAAGCCATGGACCGGTTTTCCCGGTAATCCGTATTTGGG (site GGGAAGCCTCC) | 0
17 | GAGAAGCCATGGACCGGTTTTCCCGGTAATCCGTATTTGGG (site GTGAAGCCTCC) | 0.0251
18 | GAGAATCCATGGACCGGTTTTCCCGGTAATCCGTATTTGTT (site CGGAATCCTAA) | 0
19 | GAGAATCCATGGACCGGTTTTCCCGGTAATCCGTATTTGTT (site GAGAATCCTAA) | 0
20 | GAGACGTCATGGACCGGTTTTCCCGGTAATCCGTATTTGCC (site GAGACGTCTGG) | 2.04
21 | GAGCACGCATGGACCGGTTTTCCCGGTAATCCGTATTTGGG (site AAGCACGCTCC) | 0.0191
22 | GAGCACGCATGGACCGGTTTTCCCGGTAATCCGTATTTGGG (site CAGCACGCTCC) | 0.0292
23 | GAGCACGCATGGACCGGTTTTCCCGGTAATCCGTATTTGGG (site GAGCACGCTCC) | 0.468
24 | GAGCACGCATGGACCGGTTTTCCCGGTAATCCGTATTTGGG (site TAGCACGCTCC) | 0.517
25 | GAGCACTCATGGACCGGTTTTCCCGGTAATCCGTATTTGCG (site GAGCACTCTCG) | 3.08

Row | Sequence | recombinant UMI read abundance (log10)
26 | GAGCCCACATGGACCGGTTTTCCCGGTAATCCGTATTTGAA (site GAGCCCACTTT) | 1.73
27 | GAGCCCTCATGGACCGGTTTTCCCGGTAATCCGTATTTGTC (site GAGCCCTCTGA) | 3.73
28 | GAGCCGACATGGACCGGTTTTCCCGGTAATCCGTATTTGGC (site GAGCCGACTGC) | 0
29 | GAGCGCACATGGACCGGTTTTCCCGGTAATCCGTATTTGAT (site GAGCACACTAT) | 1.07
30 | GAGCGCACATGGACCGGTTTTCCCGGTAATCCGTATTTGAT (site GAGCCCACTAT) | 0.285
31 | GAGCGCACATGGACCGGTTTTCCCGGTAATCCGTATTTGAT (site GAGCGCACTAT) | 1.73
32 | GAGCGCACATGGACCGGTTTTCCCGGTAATCCGTATTTGAT (site GAGCTCACTAT) | 0.111
33 | GAGCGTCCATGGACCGGTTTTCCCGGTAATCCGTATTTGGG (site GAGCGTCCTCC) | 0.0151
34 | GAGCGTTCATGGACCGGTTTTCCCGGTAATCCGTATTTGAA (site GAGCGTTCTTT) | 2.83
35 | GAGCTCACATGGACCGGTTTTCCCGGTAATCCGTATTTGAT (site AAGCTCACTAT) | 1.48
36 | GAGCTCACATGGACCGGTTTTCCCGGTAATCCGTATTTGAT (site CAGCTCACTAT) | 0.963
37 | GAGCTCACATGGACCGGTTTTCCCGGTAATCCGTATTTGAT (site GAACTCACTAT) | 0.9
38 | GAGCTCACATGGACCGGTTTTCCCGGTAATCCGTATTTGAT (site GACCTCACTAT) | 0.584
39 | GAGCTCACATGGACCGGTTTTCCCGGTAATCCGTATTTGAT (site GAGATCACTAT) | 0.00858
40 | GAGCTCACATGGACCGGTTTTCCCGGTAATCCGTATTTGAT (site GAGCACACTAT) | 0.159
41 | GAGCTCACATGGACCGGTTTTCCCGGTAATCCGTATTTGAT (site GAGCCCACTAT) | 0.905
42 | GAGCTCACATGGACCGGTTTTCCCGGTAATCCGTATTTGAT (site GAGCGCACTAT) | 0
43 | GAGCTCACATGGACCGGTTTTCCCGGTAATCCGTATTTGAT (site GAGCTAACTAT) | 0
44 | GAGCTCACATGGACCGGTTTTCCCGGTAATCCGTATTTGAT (site GAGCTCACTAA) | 0.00273
45 | GAGCTCACATGGACCGGTTTTCCCGGTAATCCGTATTTGAT (site GAGCTCACTAC) | 0
46 | GAGCTCACATGGACCGGTTTTCCCGGTAATCCGTATTTGAT (site GAGCTCACTAG) | 0.209
47 | GAGCTCACATGGACCGGTTTTCCCGGTAATCCGTATTTGAT (site GAGCTCACTAT) | 2.18
48 | GAGCTCACATGGACCGGTTTTCCCGGTAATCCGTATTTGAT (site GAGCTCACTCT) | 0.206
49 | GAGCTCACATGGACCGGTTTTCCCGGTAATCCGTATTTGAT (site GAGCTCACTGT) | 0.768
50 | GAGCTCACATGGACCGGTTTTCCCGGTAATCCGTATTTGAT (site GAGCTCACTTT) | 0.125

Row | Sequence | recombinant UMI read abundance (log10)
51 | GAGCTCACATGGACCGGTTTTCCCGGTAATCCGTATTTGAT (site GAGCTCCCTAT) | 0.00734
52 | GAGCTCACATGGACCGGTTTTCCCGGTAATCCGTATTTGAT (site GAGCTCGCTAT) | 0.318
53 | GAGCTCACATGGACCGGTTTTCCCGGTAATCCGTATTTGAT (site GAGCTCTCTAT) | 0.783
54 | GAGCTCACATGGACCGGTTTTCCCGGTAATCCGTATTTGAT (site GAGCTGACTAT) | 0.0158
55 | GAGCTCACATGGACCGGTTTTCCCGGTAATCCGTATTTGAT (site GAGCTTACTAT) | 0.342
56 | GAGCTCACATGGACCGGTTTTCCCGGTAATCCGTATTTGAT (site GAGGTCACTAT) | 0.0104
57 | GAGCTCACATGGACCGGTTTTCCCGGTAATCCGTATTTGAT (site GAGTTCACTAT) | 0.209
58 | GAGCTCACATGGACCGGTTTTCCCGGTAATCCGTATTTGAT (site GATCTCACTAT) | 0.0468
59 | GAGCTCACATGGACCGGTTTTCCCGGTAATCCGTATTTGAT (site GCGCTCACTAT) | 0.011
60 | GAGCTCACATGGACCGGTTTTCCCGGTAATCCGTATTTGAT (site GGGCTCACTAT) | 0.394
61 | GAGCTCACATGGACCGGTTTTCCCGGTAATCCGTATTTGAT (site GTGCTCACTAT) | 0.296
62 | GAGCTCACATGGACCGGTTTTCCCGGTAATCCGTATTTGAT (site TAGCTCACTAT) | 1.66
63 | GAGCTCTCATGGACCGGTTTTCCCGGTAATCCGTATTTGAC (site GAGCTCTCTGT) | 3.55
64 | GAGCTTACATGGACCGGTTTTCCCGGTAATCCGTATTTGAT (site GAGCTAACTAT) | 0.136
65 | GAGCTTACATGGACCGGTTTTCCCGGTAATCCGTATTTGAT (site GAGCTCACTAT) | 0.0125
66 | GAGCTTACATGGACCGGTTTTCCCGGTAATCCGTATTTGAT (site GAGCTGACTAT) | 0.0138
67 | GAGCTTACATGGACCGGTTTTCCCGGTAATCCGTATTTGAT (site GAGCTTACTAT) | 1.77
68 | GAGGAGGCATGGACCGGTTTTCCCGGTAATCCGTATTTGTG (site GAGGAGGCTCA) | 0.576
69 | GAGGAGGCATGGACCGGTTTTCCCGGTAATCCGTATTTGTG (site GCGGAGGCTCA) | 0.367
70 | GAGGAGGCATGGACCGGTTTTCCCGGTAATCCGTATTTGTG (site GGGGAGGCTCA) | 0.0134
71 | GAGGAGGCATGGACCGGTTTTCCCGGTAATCCGTATTTGTG (site GTGGAGGCTCA) | 0.26
72 | GAGGCAACATGGACCGGTTTTCCCGGTAATCCGTATTTGCT (site GAGGCAACTAG) | 1.66
73 | GAGGGTTCATGGACCGGTTTTCCCGGTAATCCGTATTTGCG (site GAGGGTTCTCG) | 2.63
74 | GAGGTTCCATGGACCGGTTTTCCCGGTAATCCGTATTTGGC (site GAGGTTCCTGC) | 0
75 | GAGTAATCATGGACCGGTTTTCCCGGTAATCCGTATTTGGG (site GAGTAATCTCC) | 1.57
